pEC50: −log10 of the molar value. Residues, ends and D or L forms follow the SMILES beside them.
Tests used:
Orexin receptor type 2 = target: T1, Orexin receptor type 2 (Homo sapiens, UniProt O43614); experiment: Effective agonist concentration to the human Orexin receptor type 2 was determined using the Xlfit program; type: functional
T1 sequence (O43614 whole entry): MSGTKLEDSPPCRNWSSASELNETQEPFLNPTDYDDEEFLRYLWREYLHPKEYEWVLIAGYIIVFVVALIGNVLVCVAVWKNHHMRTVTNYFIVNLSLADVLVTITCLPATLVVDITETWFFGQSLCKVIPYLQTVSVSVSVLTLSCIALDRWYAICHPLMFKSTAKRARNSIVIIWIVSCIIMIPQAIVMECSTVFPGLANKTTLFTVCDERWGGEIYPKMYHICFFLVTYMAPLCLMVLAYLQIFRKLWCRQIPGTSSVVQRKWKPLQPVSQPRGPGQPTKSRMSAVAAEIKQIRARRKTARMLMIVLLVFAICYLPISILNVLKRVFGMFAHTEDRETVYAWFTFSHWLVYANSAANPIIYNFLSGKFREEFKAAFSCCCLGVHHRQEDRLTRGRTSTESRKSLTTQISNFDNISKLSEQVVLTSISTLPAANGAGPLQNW

[1] = target: T2, Orexin/Hypocretin receptor type 1 (Homo sapiens, UniProt O43613); experiment: Effective agonist concentration to human orexin receptor type 1 determined using the Xlfit program; type: functional
T2 sequence (O43613 whole entry): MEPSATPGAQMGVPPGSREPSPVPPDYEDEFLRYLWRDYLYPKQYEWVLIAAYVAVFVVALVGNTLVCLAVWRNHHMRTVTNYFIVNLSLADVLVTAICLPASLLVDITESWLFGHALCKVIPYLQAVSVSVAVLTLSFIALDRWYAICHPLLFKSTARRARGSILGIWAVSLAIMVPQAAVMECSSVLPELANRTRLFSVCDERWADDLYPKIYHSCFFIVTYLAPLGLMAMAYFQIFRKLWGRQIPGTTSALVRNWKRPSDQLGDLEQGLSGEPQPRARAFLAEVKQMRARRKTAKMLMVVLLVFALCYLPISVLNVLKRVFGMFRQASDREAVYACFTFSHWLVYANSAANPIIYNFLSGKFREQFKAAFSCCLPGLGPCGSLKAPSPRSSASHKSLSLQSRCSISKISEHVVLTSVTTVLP

Row | SMILES | pEC50 (Orexin receptor type 2) | pEC50 [1]
1 | CC[C@H](C)[C@H](NC(=O)CNC(=O)[C@H](C)NC(=O)[C@H](C)NC(=O)[C@H](Cc1cnc[nH]1)NC(=O)[C@H](CC(N)=O)NC(=O)CNC(=O)[C@H](CO)NC(=O)[C@H](C)NC(=O)[C@H](CCC(N)=O)NC(=O)[C@H](CC(C)C)NC(=O)[C@H](CC(C)C)NC(=O)[C@H](CCCNC(=N)N)NC(=O)[C@H](CCC(N)=O)NC(=O)[C@H](CC(C)C)NC(=O)[C@H](CCCNC(=N)N)NC(=O)CNC(=O)[C@H](CCC(N)=O)NC(=O)[C@H](CC(C)C)NC(=O)CN)C(=O)N[C@@H](C)C(=O)N[C@H](C(=O)N[C@@H](CCSC)C(=O)O)[C@@H](C)O (H-GLQGRLQRLLQASGNHAAGIATM-OH) | 4.81 | < 3.00
2 | CC[C@H](C)[C@H](NC(=O)CNC(=O)[C@H](C)NC(=O)[C@H](C)NC(=O)[C@H](Cc1cnc[nH]1)NC(=O)[C@H](CC(N)=O)NC(=O)CNC(=O)[C@H](CO)NC(=O)[C@H](C)NC(=O)[C@H](CCC(N)=O)NC(=O)[C@H](CC(C)C)NC(=O)[C@H](CC(C)C)NC(=O)[C@H](CCCNC(=N)N)NC(=O)[C@H](CCC(N)=O)NC(=O)[C@H](CC(C)C)NC(=O)[C@H](CCCNC(=N)N)NC(=O)CNC(=O)[C@H](CCC(N)=O)NC(=O)[C@H](CC(C)C)NC(=O)CN)C(=O)N[C@@H](CC(C)C)C(=O)N1CCC[C@H]1C(=O)N[C@@H](CCSC)C(=O)O (H-GLQGRLQRLLQASGNHAAGILPM-OH) | 5.57 | < 3.00
3 | CSCC[C@H](NC(=O)[C@@H](NC(=O)[C@H](CC(C)C)NC(=O)[C@@H]1CCCN1C(=O)CNC(=O)[C@H](C)NC(=O)[C@H](C)NC(=O)[C@H](Cc1cnc[nH]1)NC(=O)[C@H](CC(N)=O)NC(=O)CNC(=O)[C@H](CO)NC(=O)[C@H](C)NC(=O)[C@H](CCC(N)=O)NC(=O)[C@H](CC(C)C)NC(=O)[C@H](CC(C)C)NC(=O)[C@H](CCCNC(=N)N)NC(=O)[C@H](CCC(N)=O)NC(=O)[C@H](CC(C)C)NC(=O)[C@H](CCCNC(=N)N)NC(=O)CNC(=O)[C@H](CCC(N)=O)NC(=O)[C@H](CC(C)C)NC(=O)CN)[C@@H](C)O)C(=O)O (H-GLQGRLQRLLQASGNHAAGPLTM-OH) | < 3.00 | < 3.00
4 | CC[C@H](C)[C@H](NC(=O)CNC(=O)[C@@H]1CCCN1C(=O)[C@H](C)NC(=O)[C@H](Cc1cnc[nH]1)NC(=O)[C@H](CC(N)=O)NC(=O)CNC(=O)[C@H](CO)NC(=O)[C@H](C)NC(=O)[C@H](CCC(N)=O)NC(=O)[C@H](CC(C)C)NC(=O)[C@H](CC(C)C)NC(=O)[C@H](CCCNC(=N)N)NC(=O)[C@H](CCC(N)=O)NC(=O)[C@H](CC(C)C)NC(=O)[C@H](CCCNC(=N)N)NC(=O)CNC(=O)[C@H](CCC(N)=O)NC(=O)[C@H](CC(C)C)NC(=O)CN)C(=O)N[C@@H](CC(C)C)C(=O)N[C@H](C(=O)N[C@@H](CCSC)C(=O)O)[C@@H](C)O (H-GLQGRLQRLLQASGNHAPGILTM-OH) | 5.44 | < 3.00
5 | CC[C@H](C)[C@H](NC(=O)CNC(=O)[C@H](C)NC(=O)[C@@H]1CCCN1C(=O)[C@H](Cc1cnc[nH]1)NC(=O)[C@H](CC(N)=O)NC(=O)CNC(=O)[C@H](CO)NC(=O)[C@H](C)NC(=O)[C@H](CCC(N)=O)NC(=O)[C@H](CC(C)C)NC(=O)[C@H](CC(C)C)NC(=O)[C@H](CCCNC(=N)N)NC(=O)[C@H](CCC(N)=O)NC(=O)[C@H](CC(C)C)NC(=O)[C@H](CCCNC(=N)N)NC(=O)CNC(=O)[C@H](CCC(N)=O)NC(=O)[C@H](CC(C)C)NC(=O)CN)C(=O)N[C@@H](CC(C)C)C(=O)N[C@H](C(=O)N[C@@H](CCSC)C(=O)O)[C@@H](C)O (H-GLQGRLQRLLQASGNHPAGILTM-OH) | 5.36 | < 3.00
6 | CC[C@H](C)[C@H](NC(=O)CNC(=O)[C@H](C)NC(=O)[C@H](C)NC(=O)[C@@H]1CCCN1C(=O)[C@H](CC(N)=O)NC(=O)CNC(=O)[C@H](CO)NC(=O)[C@H](C)NC(=O)[C@H](CCC(N)=O)NC(=O)[C@H](CC(C)C)NC(=O)[C@H](CC(C)C)NC(=O)[C@H](CCCNC(=N)N)NC(=O)[C@H](CCC(N)=O)NC(=O)[C@H](CC(C)C)NC(=O)[C@H](CCCNC(=N)N)NC(=O)CNC(=O)[C@H](CCC(N)=O)NC(=O)[C@H](CC(C)C)NC(=O)CN)C(=O)N[C@@H](CC(C)C)C(=O)N[C@H](C(=O)N[C@@H](CCSC)C(=O)O)[C@@H](C)O (H-GLQGRLQRLLQASGNPAAGILTM-OH) | 6.08 | 5.72
7 | CC[C@H](C)[C@H](NC(=O)CNC(=O)[C@H](C)NC(=O)[C@H](C)NC(=O)[C@H](Cc1cnc[nH]1)NC(=O)[C@@H](N)CC(N)=O)C(=O)N[C@@H](CC(C)C)C(=O)N[C@H](C(=O)N[C@@H](CC(C)C)C(=O)O)[C@@H](C)O (H-NHAAGILTL-OH) | < 3.00 | < 3.00
8 | CC[C@H](C)[C@H](NC(=O)CNC(=O)[C@H](C)NC(=O)[C@H](C)NC(=O)[C@H](Cc1cnc[nH]1)NC(=O)[C@H](CC(N)=O)NC(=O)CNC(=O)[C@H](CO)NC(=O)[C@H](C)NC(=O)[C@H](CCC(N)=O)NC(=O)[C@H](CC(C)C)NC(=O)[C@H](CC(C)C)NC(=O)[C@H](CCCNC(=N)N)NC(=O)[C@H](CCC(N)=O)NC(=O)[C@H](CC(C)C)NC(=O)[C@@H](N)CCCNC(=N)N)C(=O)N[C@@H](CC(C)C)C(=O)N[C@H](C(=O)N[C@@H](CCSC)C(=O)O)[C@@H](C)O (H-RLQRLLQASGNHAAGILTM-OH) | 6.24 | < 3.00
9 | CC[C@H](C)[C@H](NC(=O)CNC(=O)[C@H](C)NC(=O)[C@H](C)NC(=O)[C@H](Cc1cnc[nH]1)NC(=O)[C@H](CC(N)=O)NC(=O)CNC(=O)[C@H](C)NC(=O)CNC(=O)[C@H](Cc1cnc[nH]1)NC(=O)[C@H](CC(C)C)NC(=O)[C@H](CC(C)C)NC(=O)[C@H](CCC(=O)O)NC(=O)[C@H](Cc1ccc(O)cc1)NC(=O)[C@H](CC(C)C)NC(=O)[C@@H](N)CCCNC(=N)N)C(=O)N[C@@H](CC(C)C)C(=O)N[C@H](C(=O)N[C@@H](CC(C)C)C(=O)O)[C@@H](C)O (H-RLYELLHGAGNHAAGILTL-OH) | 6.38 | 5.75
10 | CC[C@H](C)[C@H](NC(=O)CNC(=O)[C@H](C)NC(=O)[C@H](C)NC(=O)[C@H](Cc1cnc[nH]1)NC(=O)[C@H](CC(N)=O)NC(=O)CNC(=O)[C@H](C)NC(=O)CNC(=O)[C@H](Cc1cnc[nH]1)NC(=O)[C@H](CC(C)C)NC(=O)[C@H](CC(C)C)NC(=O)[C@H](CCC(=O)O)NC(=O)[C@H](Cc1ccc(O)cc1)NC(=O)[C@H](CC(C)C)NC(=O)[C@H](CCCNC(=N)N)NC(=O)[C@H](CS)NC(=O)[C@H](CO)NC(=O)[C@H](CS)NC(=O)[C@@H](NC(=O)[C@H](CCCCN)NC(=O)[C@H](CCC(N)=O)NC(=O)[C@@H](N)CCCNC(=N)N)[C@@H](C)O)C(=O)N[C@@H](CC(C)C)C(=O)N[C@H](C(=O)N[C@@H](CC(C)C)C(=O)O)[C@@H](C)O (H-RQKTCSCRLYELLHGAGNHAAGILTL-OH) | 6.54 | 6.17
11 | CC(C)C[C@H](NC(=O)CNC(=O)[C@@H]1CCCN1C(=O)[C@@H]1CCCN1C(=O)CNC(=O)[C@H](CO)NC(=O)[C@@H](N)CCCN=C(N)N)C(=O)N[C@@H](CCC(N)=O)C(=O)NCC(=O)N[C@@H](CCCN=C(N)N)C(=O)O (H-RSGPPGLQGR-OH) | < 3.00 | < 3.00
12 | CC(C)C[C@H](NC(=O)CNC(=O)[C@@H]1CCCN1C(=O)[C@@H]1CCCN1C(=O)CNC(=O)[C@H](CO)NC(=O)[C@@H](N)CCCN=C(N)N)C(=O)N[C@@H](CCC(N)=O)C(=O)NCC(=O)N[C@@H](CCCN=C(N)N)C(=O)N[C@@H](CC(C)C)C(=O)N[C@@H](CCC(N)=O)C(=O)N[C@@H](CCCN=C(N)N)C(=O)O (H-RSGPPGLQGRLQR-OH) | < 3.00 | < 3.00
13 | CC(C)C[C@H](NC(=O)CNC(=O)[C@@H]1CCCN1C(=O)[C@@H]1CCCN1C(=O)CNC(=O)[C@H](CO)NC(=O)[C@@H](N)CCCN=C(N)N)C(=O)N[C@@H](CCC(N)=O)C(=O)NCC(=O)N[C@@H](CCCN=C(N)N)C(=O)N[C@@H](CC(C)C)C(=O)N[C@@H](CCC(N)=O)C(=O)N[C@@H](CCCN=C(N)N)C(=O)N[C@@H](CC(C)C)C(=O)N[C@@H](CC(C)C)C(=O)N[C@@H](CCC(N)=O)C(=O)O (H-RSGPPGLQGRLQRLLQ-OH) | < 3.00 | < 3.00
14 | CC(C)C[C@H](NC(=O)CNC(=O)[C@@H]1CCCN1C(=O)[C@@H]1CCCN1C(=O)CNC(=O)[C@H](CO)NC(=O)[C@@H](N)CCCNC(=N)N)C(=O)N[C@@H](CCC(N)=O)C(=O)NCC(=O)N[C@@H](CCCNC(=N)N)C(=O)N[C@@H](CC(C)C)C(=O)N[C@@H](CCC(N)=O)C(=O)N[C@@H](CCCNC(=N)N)C(=O)N[C@@H](CC(C)C)C(=O)N[C@@H](CC(C)C)C(=O)N[C@@H](CCC(N)=O)C(=O)N[C@@H](C)C(=O)N[C@@H](CO)C(=O)NCC(=O)N[C@@H](CC(N)=O)C(=O)N[C@@H](Cc1cnc[nH]1)C(=O)O (H-RSGPPGLQGRLQRLLQASGNH-OH) | < 3.00 | < 3.00
